Results reported in PMC7037731, “Synthesis, Anticancer Activity, and Preliminary Pharmacokinetic Evaluation of 4,4-Disubstituted Curcuminoid 2,2-bis(Hydroxymethyl)Propionate Derivatives” (Molecules, 2020).
Read-outs that look alike come from different tables or passages of the source.

Columns and labels:
MDA-MB-231 = assay: MTT anti-proliferative assay, MDA-MB-231; assay type: cell-based; details: Homo sapiens
Method: (§1) These compounds, along with all newly synthesized compounds, were screened for anti-proliferative activity against the same TNBC and colon cancer cell lines.
(§2) Cell viability was evaluated by measuring the reduction in MTT to yield blue formazan. Cells were cultured in 96-well plates, allowed to attach overnight, and then treated with compounds. After treatment, MTT solution (1 mg/mL) was added to each well, and plates were incubated for another 2 h. Medium was removed, blue formazan was dissolved in DMSO, and the absorbance was read at 570 nm by Multiskan Go spectrophotometer (Thermo Scientific, Madison, WI, USA).

HCT-116 = assay: MTT anti-proliferative assay, HCT-116; assay type: cell-based; details: Homo sapiens
Method: as §1, §2

[1] = tested on: HCT-116 colon tumor xenograft; assay: In vivo antitumor activity, HCT-116 colon tumor xenograft bearing nude mice; parameters: species or system nu/nu mice; details: 30 mg/kg i.p. QOD, positive control
Method: The therapeutic effect of 2 was evaluated on HCT-116 colon tumor xenograft bearing nude mice. The oral administration of 2 at doses of 50, 100, or 150 mg/kg bw per day were performed after tumors reached approximately 100 mm^3 and continued for 30 consecutive days. 5-Fluorouracil treatment (30 mg/kg bw, i.p., QOD) was used as a positive control. […] There was a clear dose- and time-dependent inhibitory effect on tumor size in the other two groups, in which at 50 and 150 mg/kg doses the volume of the HCT-116 colon tumor was reduced to 73% and 40% of the control, respectively (Figure 2). The body weight of the mice was recorded prior to dosing every 3 d, and the average body weight of each group is depicted in Figure 3. Otherwise, they were monitored for visible signs of toxicity and behavioral changes 1 h after each administration.
Male nu/nu mice (5 weeks old) from National Laboratory Animal Center (Taipei, Taiwan) were maintained under the procedures and guidelines provided by the Institutional Animal Care and Use Committee of the National Health Research Institutes (Taipei, Taiwan). All experiments were supervised under the Institutional Animal Care and Use Committee, China Medical University, Taichung, Taiwan with a protocol number ([…]-2018-278). HCT-116 colon cancer cells (5 × 10^6 cells per mouse) were suspended in 0.1 mL of Matrigel solution (50% v/v Matrigel in PBS) and inoculated into the mammary fat pads of the mice. When the tumor size reached 100 mm^3, the tumor-bearing mice were randomly divided into four groups for treating with vehicle (5% ethanol and 10% tween 80 in 85% saline, 0.1 mL) and 2 (p.o. 50, 100 and 150 mg/kg/day body weight) respectively. Compounds was administered via oral route daily for 30 days. 5-Fluorouracil-treated group (i.p. 30 mg/kg) is the positive control. Tumor size and mouse body weight were measured once every 3 days, and tumor volume (mm^3) was calculated using the equation: length × (width)^2 × 0.5. At the end of experiments, mice were sacrificed.

[2] = 48 h treatment, MTT, mean ± SD of at least three experiments, read-out: IC50 (M)/ 48 h MDA-MB-231
[3] = 48 h treatment, MTT, mean ± SD of at least three experiments, read-out: IC50 (M)/ 48 h HCT-116
[4] = anti-proliferative screening, read-out: IC50 MDA-MB-231
[5] = anti-proliferative screening, read-out: IC50 HCT-116

Compound	IC50 (MDA-MB-231; [2])	IC50 (HCT-116; [3])	melting point	IC50 (MDA-MB-231; [4])	IC50 (HCT-116; [5])	tumor-growth inhibition [1]
COCC(COC)(C(=O)/C=C/c1ccc(OC(=O)C(C)(CO)CO)c(OC)c1)C(=O)/C=C/c1ccc(OC(=O)C(C)(CO)CO)c(OC)c1 [Compound 11, [(1E,6E)-4,4-bis(Methoxymethyl)-3,5-dioxohepta-1,6-diene-1,7-diyl]bis(2-methoxy-4,1-phenylene) bis[3-hydroxy-2-(hydroxymethyl)-2-methylpropanoate]]	8.49e-05 ± 1.67e-06 M	6.91e-05 ± 3.11e-06 M	187 to 188 °C	–	–	–
C=CCC(CC=C)(C(=O)/C=C/c1ccc(OC(=O)C(C)(CO)CO)c(OC)c1)C(=O)/C=C/c1ccc(OC(=O)C(C)(CO)CO)c(OC)c1 [Compound 6, [(1E,6E)-4,4-Diallyl-3,5-dioxohepta-1,6-diene-1,7-diyl]bis(2-methoxy-4,1-phenylene) bis[3-hydroxy-2-(hydroxymethyl)-2-methylpropanoate]]	3.13e-06 ± 5.4e-07 M	9.2e-07 ± 6e-08 M	195 to 197 °C	–	–	–
CCC(CC)(C(=O)/C=C/c1ccc(OC(=O)C(C)(CO)CO)c(OC)c1)C(=O)/C=C/c1ccc(OC(=O)C(C)(CO)CO)c(OC)c1 [Compound 3]	3.02e-06 ± 1.5e-07 M	1.93e-06 ± 1e-08 M	–	–	–	–
C#CCC(CC#C)(C(=O)/C=C/c1ccc(O)c(OC)c1)C(=O)/C=C/c1ccc(O)c(OC)c1 [Compound 5m, (1E,6E)-1,7-bis(4-Hydroxy-3-methoxyphenyl)-4,4-di(prop-2-yn-1-yl)hepta-1,6-diene-3,5-dione]	3.1e-06 ± 1.5e-07 M	1.38e-06 ± 6e-08 M	–	–	–	–
C=CCC(CC=C)(C(=O)/C=C/c1ccc(O)c(OC)c1)C(=O)/C=C/c1ccc(O)c(OC)c1 [Compound 6m, (1E,6E)-4,4-Diallyl-1,7-bis(4-hydroxy-3-methoxyphenyl)hepta-1,6-diene-3,5-dione]	6.88e-06 ± 3.6e-07 M	4.4e-06 ± 5.3e-07 M	–	–	–	–
COc1cc(/C=C/C(=O)C(COC(C)=O)(COC(C)=O)C(=O)/C=C/c2ccc(OC(=O)C(C)(CO)CO)c(OC)c2)ccc1OC(=O)C(C)(CO)CO [Compound 10, [(1E,6E)-4,4-bis(Acetoxymethyl)-3,5-dioxohepta-1,6-diene-1,7-diyl]bis(2-methoxy-4,1-phenylene) bis[3-hydroxy-2-(hydroxymethyl)-2-methylpropanoate]]	6.55e-06 ± 4e-08 M	6.53e-06 ± 1e-08 M	194 to 196 °C	–	–	–
O=c1[nH]cc(F)c(=O)[nH]1 [5-Fluorouracil, reference compound]	–	–	–	–	–	40%
C#CCC(CC#C)(C(=O)/C=C/c1ccc(OC(=O)C(C)(CO)CO)c(OC)c1)C(=O)/C=C/c1ccc(OC(=O)C(C)(CO)CO)c(OC)c1 [Compound 5]	5.87e-06 ± 1e-07 M	5.81e-06 ± 2.3e-07 M	–	–	–	–
COc1cc(/C=C/C(=O)C(Cc2ccccc2)(Cc2ccccc2)C(=O)/C=C/c2ccc(OC(=O)C(C)(CO)CO)c(OC)c2)ccc1OC(=O)C(C)(CO)CO [Compound 4]	2.45e-06 ± 2.4e-07 M	7.66e-06 ± 6.1e-07 M	–	–	–	–
COc1cc(/C=C/C(=O)CC(=O)/C=C/c2ccc(O)c(OC)c2)ccc1O [Curcumin, (1E,6E)-1,7-bis(4-hydroxy-3-methoxyphenyl)hepta-1,6-diene-3,5-dione]	2.21e-05 ± 2.97e-06 M	2.63e-05 ± 1.38e-06 M	–	–	–	–
COc1cc(/C=C/C(=O)C(Cc2ccccc2)(Cc2ccccc2)C(=O)/C=C/c2ccc(O)c(OC)c2)ccc1O [Compound 4m, (1E,6E)-4,4-Dibenzyl-1,7-bis(4-hydroxy-3-methoxyphenyl)hepta-1,6-diene-3,5-dione]	3.65e-05 ± 1.66e-06 M	9.4e-06 ± 2e-08 M	134 to 135 °C	–	–	–
CCC(CC)(C(=O)/C=C/c1ccc(O)c(OC)c1)C(=O)/C=C/c1ccc(O)c(OC)c1 [Compound 3m, (1E,6E)-4,4-Diethyl-1,7-bis(4-hydroxy-3-methoxyphenyl)hepta-1,6-diene-3,5-dione]	9.12e-06 ± 4e-07 M	8.18e-06 ± 5.7e-07 M	114 to 115 °C	–	–	–

More lines, main results first:

IC50 (MDA-MB-231; [2])	IC50 (HCT-116; [3])	melting point	IC50 (MDA-MB-231; [4])	IC50 (HCT-116; [5])	Compound	tumor-growth inhibition [1]
> 0.0001 M	6.7e-05 ± 3.18e-06 M	144 to 146 °C	–	–	CCCCC(CCCC)(C(=O)/C=C/c1ccc(O)c(OC)c1)C(=O)/C=C/c1ccc(O)c(OC)c1 [Compound 16, (1E,6E)-4,4-Dibutyl-1,7-bis(4-hydroxy-3-methoxyphenyl)hepta-1,6-diene-3,5-dione]	–
5.74e-05 ± 2.06e-06 M	4.01e-05 ± 1.61e-06 M	> 300 °C	–	–	COc1ccc(/C=C/C(=O)C(COC(=O)C(C)(CO)CO)(COC(=O)C(C)(CO)CO)C(=O)/C=C/c2ccc(OC)c(OC)c2)cc1OC [Compound 14, 2,2-bis[(E)-3-(3,4-Dimethoxyphenyl)acryloyl]propane-1,3-diylbis[3-hydroxy-2-(hydroxymethyl)-2-methylpropanoate]]	–
–	–	–	≥ 0.0001 M	≥ 0.0001 M	COc1cc(CCC(O)C(C)(C)C(O)CCc2ccc(O)c(OC)c2)ccc1O (stereo not drawn) [Compound 21, 1,7-bis(4-Hydroxy-3-methoxyphenyl)-4,4-dimethylheptane-3,5-diol]	–
–	–	–	≥ 0.0001 M	≥ 0.0001 M	COc1cc(CCC(=O)C(C)(C)C(=O)CCc2ccc(O)c(OC)c2)ccc1O [Compound 19, 1,7-bis(4-Hydroxy-3-methoxyphenyl)-4,4-dimethylheptane-3,5-dione]	–
5.35e-05 ± 3.45e-06 M	5.8e-05 ± 6e-07 M	174 to 176 °C	–	–	COc1ccc(/C=C/C(=O)C(CO)(CO)C(=O)/C=C/c2ccc(OC)c(OC)c2)cc1OC [Compound 12, (1E,6E)-1,7-bis(3,4-Dimethoxyphenyl)-4,4-bis(hydroxymethyl)hepta-1,6-diene-3,5-dione]	–
–	–	–	3.648e-05 ± 3.4e-07 M	9.64e-06 ± 2.1e-07 M	COc1cc(/C=C/C(=O)C(C)(C)C(=O)CCc2ccc(O)c(OC)c2)ccc1O [Compound 18, (E)-1,7-bis(4-Hydroxy-3-methoxyphenyl)-4,4-dimethylhept-1-ene-3,5-dione]	–
–	–	–	≥ 0.0001 M	≥ 0.0001 M	COc1cc(CCC(=O)C(C)(C)C(O)CCc2ccc(O)c(OC)c2)ccc1O (stereo not drawn) [Compound 20, 5-hydroxy-1,7-bis(4-hydroxy-3-methoxyphenyl)-4,4-dimethylheptan-3-one]	–
1.82e-05 ± 5.3e-07 M	1.07e-05 ± 1.63e-06 M	137 to 139 °C	–	–	CCCC(CCC)(C(=O)/C=C/c1ccc(O)c(OC)c1)C(=O)/C=C/c1ccc(O)c(OC)c1 [Compound 15, (1E,6E)-1,7-bis(4-Hydroxy-3-methoxyphenyl)-4,4-dipropylhepta-1,6-diene-3,5-dione]	–
